Measurements taken from patent publication US5013554A, “Oral pharmaceutical compositions containing dextrophan salts” (Prodotti Formenti s.r.l., priority 1988, dated 1991).
Structures can show the parent of a compound that is named as a salt.

Key:
[1] = pharmacokinetic study on guinea pigs under urethane anaesthesia, oral administration of dextrorphan citrate and tartrate; plasma dextrorphan by HPLC after β-glucuronidase hydrolysis; format: in vivo
Protocol: The results from a pharmacokinetic study effected on guinea pigs under urethane anesthaesia, to which dextrorphan citrate and tartrate had been administered by the oral route, are reported hereinbelow in order to show the good bioavailability of dextrorphan salts.
Dextrorphan dosages were measured by a high pressure liquid chromatography method.
The plasma samples were subjected, before the extraction, to enzymatic hydrolysis with β-glucuronidase, according to the method reported by T.EAST and D.DYE (Journal of Chromatography Biomedical Applications 388, 99-112, 1985).
After hydrolysis, plasma samples were alkalinized with sodium carbonate and extracted with benzene; benzene was re-extracted with 0.5 ml of 0.1 NHCl and 100 mcl were chromatographed under the following conditions:
COLUMN: Lichrosorb RP Select B Merck 5 λ, 25 cm ×4 mm inn. d.
MOBILE PHASE: Octanesulphonic acid sodium salt 0.01M solution in water. Acetonitrile mixture (68-32% ). The solution was then buffered to pH 3 with phosphoric acid.
DETECTOR: F 1000 MERCK HITACHI Fluorimeter exc.=280 nm; em.=310 nm

[2] = previously reported; cited from earlier work
[3] = background; compared with dextromethorphan; cited from earlier work
opiaceous receptors = conditions: background; cited from earlier work
[4] = background; cited from earlier work
[5] = background; cited from earlier work; remark: listed apart in the source

Row | SMILES | oral absorption ([1]; in words) | concentration at 0.25 h ([1]; guinea pig, plasma, po, Table 2 (dextrorphan tartrate by order of b16), 15 minutes, read-out: Dextrorphan hematic levels) [ng/mL] | concentration at 0.5 h ([1]; guinea pig, plasma, po, Table 2 (dextrorphan tartrate by order of b16), 30 minutes, read-out: Dextrorphan hematic levels) [ng/mL] | concentration at 1 h ([1]; guinea pig, plasma, po, Table 2 (dextrorphan tartrate by order of b16), 60 minutes, read-out: Dextrorphan hematic levels) [ng/mL] | concentration at 2 h ([1]; guinea pig, plasma, po, Table 2 (dextrorphan tartrate by order of b16), 120 minutes, read-out: Dextrorphan hematic levels) [ng/mL] | concentration at 3 h ([1]; guinea pig, plasma, po, Table 2 (dextrorphan tartrate by order of b16), 180 minutes, read-out: Dextrorphan hematic levels) [ng/mL] | concentration at 5 h ([1]; guinea pig, plasma, po, Table 2 (dextrorphan tartrate by order of b16), 300 minutes, read-out: Dextrorphan hematic levels) [ng/mL] | use by the oral route [2] | toxicity [3] | affinity to the opiaceous receptors (opiaceous receptors) | analgesic activity [4] | antitussive action [5]
1 | CN1CC[C@@]23CCCC[C@@H]2[C@@H]1Cc1ccc(O)cc13 [Dextrorphan citrate] | effectively absorbed |  |  |  |  |  |  |  |  |  |  | 
2 | CN1CC[C@@]23CCCC[C@@H]2[C@@H]1Cc1ccc(O)cc13 [Dextrorphan] |  | 10 | 470 | 2500 | 3800 | 3000 | 3800 | not to be conveniently used by the oral route | very low toxicity, even lower than that of dextromethorphan | lack of analgesic activity and of affinity to the opiaceous receptors | lack of analgesic activity | remarkable antitussive action
